Laboratory results from the NIST ThermoML archive (doi:10.1021/acs.jced.6b00396).

Assay: xn = mol fraction of the nth substance listed
Conditions: Gas, isochoric method

F/C=C(\F)C(F)(F)F [(Z)-1,2,3,3,3-pentafluoro-1-propene] + CCC
Conditions | specific volume [m3/kg]
303.15 K, 459.8 kPa, x2 = 0.855 | 0.09
303.15 K, 722.5 kPa, x2 = 0.593 | 0.038
308.15 K, 412.6 kPa, x2 = 0.516 | 0.067
308.15 K, 468.5 kPa, x2 = 0.855 | 0.09
308.15 K, 491.5 kPa, x2 = 0.225 | 0.042
308.15 K, 738.6 kPa, x2 = 0.593 | 0.038
308.15 K, 946.2 kPa, x2 = 0.69 | 0.032
313.15 K, 420.3 kPa, x2 = 0.516 | 0.067
313.15 K, 477.3 kPa, x2 = 0.855 | 0.09
313.15 K, 501.4 kPa, x2 = 0.225 | 0.042
313.15 K, 754.6 kPa, x2 = 0.593 | 0.038
313.15 K, 968.3 kPa, x2 = 0.69 | 0.032
318.15 K, 428 kPa, x2 = 0.516 | 0.067
318.15 K, 486 kPa, x2 = 0.855 | 0.09
318.15 K, 511.5 kPa, x2 = 0.225 | 0.042
318.15 K, 770.3 kPa, x2 = 0.593 | 0.038
318.15 K, 990.1 kPa, x2 = 0.69 | 0.032
323.15 K, 435.7 kPa, x2 = 0.516 | 0.067
323.15 K, 494.7 kPa, x2 = 0.855 | 0.09
323.15 K, 521.2 kPa, x2 = 0.225 | 0.042
323.15 K, 786.1 kPa, x2 = 0.593 | 0.038
323.15 K, 1011.5 kPa, x2 = 0.69 | 0.032
328.15 K, 443.4 kPa, x2 = 0.516 | 0.067
328.15 K, 503.4 kPa, x2 = 0.855 | 0.09
328.15 K, 531.1 kPa, x2 = 0.225 | 0.042
328.15 K, 801.7 kPa, x2 = 0.593 | 0.038
328.15 K, 1033 kPa, x2 = 0.69 | 0.032
333.15 K, 451 kPa, x2 = 0.516 | 0.067
333.15 K, 512.1 kPa, x2 = 0.855 | 0.09
333.15 K, 540.8 kPa, x2 = 0.225 | 0.042
333.15 K, 817.3 kPa, x2 = 0.593 | 0.038
333.15 K, 1054.4 kPa, x2 = 0.69 | 0.032
338.15 K, 458.7 kPa, x2 = 0.516 | 0.067
338.15 K, 520.9 kPa, x2 = 0.855 | 0.09
338.15 K, 550.6 kPa, x2 = 0.225 | 0.042
338.15 K, 832.7 kPa, x2 = 0.593 | 0.038
338.15 K, 1075.7 kPa, x2 = 0.69 | 0.032
343.15 K, 466.6 kPa, x2 = 0.516 | 0.067
343.15 K, 529.5 kPa, x2 = 0.855 | 0.09
343.15 K, 560.3 kPa, x2 = 0.225 | 0.042
343.15 K, 848.1 kPa, x2 = 0.593 | 0.038
343.15 K, 1096.9 kPa, x2 = 0.69 | 0.032
348.15 K, 474.1 kPa, x2 = 0.516 | 0.067
348.15 K, 538.1 kPa, x2 = 0.855 | 0.09
348.15 K, 570 kPa, x2 = 0.225 | 0.042
348.15 K, 863.4 kPa, x2 = 0.593 | 0.038
348.15 K, 1118 kPa, x2 = 0.69 | 0.032
353.15 K, 481.7 kPa, x2 = 0.516 | 0.067
353.15 K, 546.7 kPa, x2 = 0.855 | 0.09
353.15 K, 580.1 kPa, x2 = 0.225 | 0.042
353.15 K, 878.7 kPa, x2 = 0.593 | 0.038
353.15 K, 1139.2 kPa, x2 = 0.69 | 0.032
358.15 K, 489.3 kPa, x2 = 0.516 | 0.067
358.15 K, 555.3 kPa, x2 = 0.855 | 0.09
358.15 K, 589.7 kPa, x2 = 0.225 | 0.042
358.15 K, 893.9 kPa, x2 = 0.593 | 0.038
358.15 K, 1160 kPa, x2 = 0.69 | 0.032
363.15 K, 496.8 kPa, x2 = 0.516 | 0.067
363.15 K, 563.9 kPa, x2 = 0.855 | 0.09
363.15 K, 909 kPa, x2 = 0.593 | 0.038
363.15 K, 1180.9 kPa, x2 = 0.69 | 0.032
363.16 K, 599.3 kPa, x2 = 0.225 | 0.042

C=C(F)C(F)(F)F [2,3,3,3-tetrafluoro-1-propene] + CCC
Conditions | specific volume [m3/kg]
268.15 K, 333 kPa, x2 = 0.709 | 0.095
273.15 K, 340.4 kPa, x2 = 0.709 | 0.095
278.15 K, 347.7 kPa, x2 = 0.709 | 0.095
278.15 K, 366.9 kPa, x2 = 0.505 | 0.072
283.15 K, 354.8 kPa, x2 = 0.709 | 0.095
283.15 K, 374.9 kPa, x2 = 0.505 | 0.072
288.13 K, 614.2 kPa, x2 = 0.611 | 0.047
288.15 K, 382.8 kPa, x2 = 0.505 | 0.072
288.16 K, 362 kPa, x2 = 0.709 | 0.095
288.16 K, 449 kPa, x2 = 0.23 | 0.048
293.15 K, 369.3 kPa, x2 = 0.709 | 0.095
293.15 K, 390.7 kPa, x2 = 0.505 | 0.072
293.15 K, 459.2 kPa, x2 = 0.23 | 0.048
293.17 K, 628.3 kPa, x2 = 0.611 | 0.047
298.15 K, 376.6 kPa, x2 = 0.709 | 0.095
298.15 K, 398.5 kPa, x2 = 0.505 | 0.072
298.15 K, 470.2 kPa, x2 = 0.23 | 0.048
298.15 K, 642.2 kPa, x2 = 0.611 | 0.047
298.15 K, 807.3 kPa, x2 = 0.839 | 0.047
303.15 K, 383.9 kPa, x2 = 0.709 | 0.095
303.15 K, 406.7 kPa, x2 = 0.505 | 0.072
303.15 K, 479.7 kPa, x2 = 0.23 | 0.048
303.15 K, 656.1 kPa, x2 = 0.611 | 0.047
303.15 K, 825.7 kPa, x2 = 0.839 | 0.047
308.15 K, 391 kPa, x2 = 0.709 | 0.095
308.15 K, 414.4 kPa, x2 = 0.505 | 0.072
308.15 K, 489.4 kPa, x2 = 0.23 | 0.048
308.15 K, 669.8 kPa, x2 = 0.611 | 0.047
308.15 K, 844 kPa, x2 = 0.839 | 0.047
313.15 K, 398.2 kPa, x2 = 0.709 | 0.095
313.15 K, 422.1 kPa, x2 = 0.505 | 0.072
313.15 K, 499.1 kPa, x2 = 0.23 | 0.048
313.15 K, 683.5 kPa, x2 = 0.611 | 0.047
313.15 K, 862.2 kPa, x2 = 0.839 | 0.047
318.15 K, 405.3 kPa, x2 = 0.709 | 0.095
318.15 K, 429.8 kPa, x2 = 0.505 | 0.072
318.15 K, 508.7 kPa, x2 = 0.23 | 0.048
318.15 K, 697.1 kPa, x2 = 0.611 | 0.047
318.15 K, 880.3 kPa, x2 = 0.839 | 0.047
323.15 K, 412.4 kPa, x2 = 0.709 | 0.095
323.15 K, 437.5 kPa, x2 = 0.505 | 0.072
323.15 K, 518.3 kPa, x2 = 0.23 | 0.048
323.15 K, 710.9 kPa, x2 = 0.611 | 0.047
323.15 K, 898.3 kPa, x2 = 0.839 | 0.047
328.15 K, 419.5 kPa, x2 = 0.709 | 0.095
328.15 K, 445.3 kPa, x2 = 0.505 | 0.072
328.15 K, 527.8 kPa, x2 = 0.23 | 0.048
328.15 K, 724.4 kPa, x2 = 0.611 | 0.047
328.15 K, 916.2 kPa, x2 = 0.839 | 0.047
333.15 K, 426.6 kPa, x2 = 0.709 | 0.095
333.15 K, 452.9 kPa, x2 = 0.505 | 0.072
333.15 K, 537.3 kPa, x2 = 0.23 | 0.048
333.15 K, 737.9 kPa, x2 = 0.611 | 0.047
333.15 K, 934 kPa, x2 = 0.839 | 0.047
338.15 K, 433.8 kPa, x2 = 0.709 | 0.095
338.15 K, 460.5 kPa, x2 = 0.505 | 0.072
338.15 K, 546.7 kPa, x2 = 0.23 | 0.048
338.15 K, 751.3 kPa, x2 = 0.611 | 0.047
338.15 K, 951.8 kPa, x2 = 0.839 | 0.047
343.15 K, 440.8 kPa, x2 = 0.709 | 0.095
343.15 K, 468.1 kPa, x2 = 0.505 | 0.072
343.15 K, 556.2 kPa, x2 = 0.23 | 0.048
343.15 K, 764.6 kPa, x2 = 0.611 | 0.047
343.15 K, 969.5 kPa, x2 = 0.839 | 0.047
348.14 K, 778 kPa, x2 = 0.611 | 0.047
348.15 K, 447.9 kPa, x2 = 0.709 | 0.095
348.15 K, 475.6 kPa, x2 = 0.505 | 0.072
348.15 K, 565.8 kPa, x2 = 0.23 | 0.048
348.15 K, 987.1 kPa, x2 = 0.839 | 0.047
353.15 K, 454.9 kPa, x2 = 0.709 | 0.095
353.15 K, 483.2 kPa, x2 = 0.505 | 0.072
353.15 K, 575.1 kPa, x2 = 0.23 | 0.048
353.15 K, 791.3 kPa, x2 = 0.611 | 0.047
353.15 K, 1004.6 kPa, x2 = 0.839 | 0.047
358.15 K, 462 kPa, x2 = 0.709 | 0.095
358.15 K, 490.8 kPa, x2 = 0.505 | 0.072
358.15 K, 584.5 kPa, x2 = 0.23 | 0.048
358.15 K, 804.5 kPa, x2 = 0.611 | 0.047
358.15 K, 1022.2 kPa, x2 = 0.839 | 0.047
363.15 K, 469 kPa, x2 = 0.709 | 0.095
363.15 K, 498.3 kPa, x2 = 0.505 | 0.072
363.15 K, 593.8 kPa, x2 = 0.23 | 0.048
363.15 K, 817.7 kPa, x2 = 0.611 | 0.047
363.16 K, 1039.6 kPa, x2 = 0.839 | 0.047
